How the values were obtained:
[1] = Metabolic stability in rat liver microsomes assessed as half life; assay type: ADME, Microsome
[2] = molecular target: T1, A disintegrin and metalloproteinase with thrombospondin motifs 5 (Homo sapiens, UniProt Q9UNA0); experiment: Inhibition of ADAMTS5 by FRET assay
T1 sequence (Q9UNA0 whole entry): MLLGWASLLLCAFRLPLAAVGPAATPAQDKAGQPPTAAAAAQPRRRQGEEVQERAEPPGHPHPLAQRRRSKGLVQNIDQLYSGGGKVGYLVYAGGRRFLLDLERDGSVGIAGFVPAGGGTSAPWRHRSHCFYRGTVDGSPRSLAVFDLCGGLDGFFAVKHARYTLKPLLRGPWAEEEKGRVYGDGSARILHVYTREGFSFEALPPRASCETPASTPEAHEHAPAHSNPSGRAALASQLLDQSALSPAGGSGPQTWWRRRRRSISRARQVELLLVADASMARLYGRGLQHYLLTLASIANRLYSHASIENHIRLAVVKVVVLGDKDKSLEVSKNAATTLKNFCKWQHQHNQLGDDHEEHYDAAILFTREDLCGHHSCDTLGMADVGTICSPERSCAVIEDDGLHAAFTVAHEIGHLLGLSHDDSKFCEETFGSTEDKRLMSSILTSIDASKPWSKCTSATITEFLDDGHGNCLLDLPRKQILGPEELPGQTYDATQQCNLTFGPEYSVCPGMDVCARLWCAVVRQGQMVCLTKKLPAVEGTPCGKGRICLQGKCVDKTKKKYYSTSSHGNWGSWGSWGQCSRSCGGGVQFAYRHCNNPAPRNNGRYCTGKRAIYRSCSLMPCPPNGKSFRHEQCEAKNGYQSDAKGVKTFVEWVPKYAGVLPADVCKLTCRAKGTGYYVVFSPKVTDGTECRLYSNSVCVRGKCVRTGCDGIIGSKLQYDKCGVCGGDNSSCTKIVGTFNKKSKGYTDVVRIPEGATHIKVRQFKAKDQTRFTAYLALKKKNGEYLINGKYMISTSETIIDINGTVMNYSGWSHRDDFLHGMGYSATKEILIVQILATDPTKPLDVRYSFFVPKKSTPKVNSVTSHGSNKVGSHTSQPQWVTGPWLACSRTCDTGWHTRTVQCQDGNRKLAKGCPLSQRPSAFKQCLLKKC

Cytochrome P450 3A4 = Cytochrome P450 3A4 (Homo sapiens, UniProt P08684); experiment: Inhibition of CYP3A4 at 30 uM by FRET assay; assay type: ADME
[3] = molecular target: T2, A disintegrin and metalloproteinase with thrombospondin motifs 4 (Homo sapiens, UniProt O75173); experiment: Inhibition of ADAMTS4 by FRET assay
T2 sequence (O75173 whole entry): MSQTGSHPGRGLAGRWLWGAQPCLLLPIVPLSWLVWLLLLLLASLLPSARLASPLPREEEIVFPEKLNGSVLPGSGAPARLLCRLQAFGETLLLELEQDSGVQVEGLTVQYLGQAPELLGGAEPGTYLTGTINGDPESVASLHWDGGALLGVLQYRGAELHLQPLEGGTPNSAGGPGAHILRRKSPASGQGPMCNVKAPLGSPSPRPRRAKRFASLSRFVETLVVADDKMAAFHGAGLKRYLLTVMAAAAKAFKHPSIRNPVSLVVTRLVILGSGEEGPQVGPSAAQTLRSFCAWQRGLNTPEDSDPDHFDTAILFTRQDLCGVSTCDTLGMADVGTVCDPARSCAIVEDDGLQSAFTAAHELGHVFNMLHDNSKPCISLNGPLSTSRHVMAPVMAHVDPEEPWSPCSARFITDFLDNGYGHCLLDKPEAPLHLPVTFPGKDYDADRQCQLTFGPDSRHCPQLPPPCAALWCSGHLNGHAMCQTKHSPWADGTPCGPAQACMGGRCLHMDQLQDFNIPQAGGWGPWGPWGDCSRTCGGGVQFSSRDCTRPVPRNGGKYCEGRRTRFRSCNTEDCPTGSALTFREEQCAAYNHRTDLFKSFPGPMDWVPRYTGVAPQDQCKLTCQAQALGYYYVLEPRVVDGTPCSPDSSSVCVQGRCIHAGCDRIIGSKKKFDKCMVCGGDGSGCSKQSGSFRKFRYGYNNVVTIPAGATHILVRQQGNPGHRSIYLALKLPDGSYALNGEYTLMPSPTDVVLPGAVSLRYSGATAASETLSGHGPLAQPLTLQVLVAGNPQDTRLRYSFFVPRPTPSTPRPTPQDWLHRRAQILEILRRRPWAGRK

Collagenase 3 = Collagenase 3 (Homo sapiens, UniProt P45452); experiment: Inhibition of MMP13 by FRET assay
[4] = molecular target: Macrophage metalloelastase (Homo sapiens) (UniProt P39900); experiment: Inhibition of MMP12 at […] by FRET assay
Macrophage metalloelastase (Homo sapiens), sequence (P39900 106-470 limits assumed): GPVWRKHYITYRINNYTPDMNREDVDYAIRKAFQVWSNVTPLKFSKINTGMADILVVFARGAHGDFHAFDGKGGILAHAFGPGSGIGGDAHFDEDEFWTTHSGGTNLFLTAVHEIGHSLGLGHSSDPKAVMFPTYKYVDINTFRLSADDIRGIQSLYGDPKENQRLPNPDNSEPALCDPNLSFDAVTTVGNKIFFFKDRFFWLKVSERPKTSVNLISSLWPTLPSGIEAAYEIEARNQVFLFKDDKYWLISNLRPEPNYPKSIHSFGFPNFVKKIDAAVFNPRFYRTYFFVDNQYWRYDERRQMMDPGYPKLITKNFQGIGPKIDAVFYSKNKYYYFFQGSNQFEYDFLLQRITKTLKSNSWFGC

Cytochrome P450 3A4, sequence (P08684 whole entry): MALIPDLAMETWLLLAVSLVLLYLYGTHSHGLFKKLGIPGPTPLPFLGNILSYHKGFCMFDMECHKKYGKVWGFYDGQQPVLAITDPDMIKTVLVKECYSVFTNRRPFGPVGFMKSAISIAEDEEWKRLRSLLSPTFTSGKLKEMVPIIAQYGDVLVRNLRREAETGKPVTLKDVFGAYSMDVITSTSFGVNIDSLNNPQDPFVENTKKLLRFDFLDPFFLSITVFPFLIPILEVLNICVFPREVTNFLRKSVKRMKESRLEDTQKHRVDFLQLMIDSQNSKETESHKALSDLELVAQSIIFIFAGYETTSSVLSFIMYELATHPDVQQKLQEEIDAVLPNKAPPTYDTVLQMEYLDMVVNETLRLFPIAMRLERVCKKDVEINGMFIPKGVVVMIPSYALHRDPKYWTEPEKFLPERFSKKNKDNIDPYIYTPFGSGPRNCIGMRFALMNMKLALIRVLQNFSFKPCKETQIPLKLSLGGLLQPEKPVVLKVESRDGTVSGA

| Structure (SMILES) | half-life [1] [min] | IC50 [2] [µM] | inhibition (INH) (Cytochrome P450 3A4) [%] | IC50 [3] [nM] | IC50 (Collagenase 3) [µM] | inhibition [4] [%] |
| --- | --- | --- | --- | --- | --- | --- |
| COc1ccc(C(NC(=O)COc2ccc(Cl)c(C)c2)c2cc(Cl)c3cccnc3c2O)cc1 (centres undefined) | 9 | > 10 | 25 | – | – | – |
| Cc1cc(OCC(=O)NC(c2cccc([N+](=O)[O-])c2)c2cc(Cl)c3cccnc3c2O)ccc1Cl (centres undefined) | 30 | > 10 | 19 | – | – | – |
| O=C(COc1ccccc1)NC(c1ccccc1Cl)c1cc(Cl)c2cccnc2c1O (centres undefined) | – | – | 43 | 2400 | > 67 | 50 |
| O=C(COc1ccccc1)NC(c1cccc([N+](=O)[O-])c1)c1cc(Cl)c2cccnc2c1O (centres undefined) | 6 | – | 26 | 1900 | > 200 | 45 |
| COc1ccc(OCC(=O)NC(c2ccc(OC)cc2)c2cc(Cl)c3cccnc3c2O)cc1 (centres undefined) | – | – | 74 | > 50000 | > 200 | 37 |
